Data published in PubChem BioAssay (NCI).
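Briefly, cells in 96-well plates were exposed to five compound concentrations for 48 h, and endpoints were estimated by linear interpolation. TGI: concentration producing complete growth inhibition.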

Columns and labels:
Test in all cases: NCI-60 cell line screen, 48 h
786-0 renal = tested on: 786-0 renal
KM12 colon = tested on: KM12 colon
K-562 leukemia = tested on: K-562 leukemia
NCI-H460 lung = tested on: NCI-H460 lung
NCI-H522 lung = tested on: NCI-H522 lung
HS 578T breast = tested on: HS 578T breast
TK-10 renal = tested on: TK-10 renal
SK-MEL-28 melanoma = tested on: SK-MEL-28 melanoma
HOP-92 NSCLC = tested on: HOP-92 NSCLC
HCT-15 colon = tested on: HCT-15 colon
A549 NSCLC = tested on: A549 NSCLC
HCT-116 colon = tested on: HCT-116 colon
RPMI-8226 leukemia = tested on: RPMI-8226 leukemia
ACHN renal = tested on: ACHN renal
CAKI-1 renal = tested on: CAKI-1 renal
SF-295 CNS = tested on: SF-295 CNS
MDA-MB-231 breast = tested on: MDA-MB-231 breast
SF-539 CNS = tested on: SF-539 CNS
OVCAR-5 ovarian = tested on: OVCAR-5 ovarian
UO-31 renal = tested on: UO-31 renal

SMILES	TGI (786-0 renal)	TGI (KM12 colon)	TGI (K-562 leukemia)	TGI (NCI-H460 lung)	TGI (NCI-H522 lung)	TGI (HS 578T breast)	TGI (TK-10 renal)	TGI (SK-MEL-28 melanoma)	TGI (HOP-92 NSCLC)	TGI (HCT-15 colon)	TGI (A549 NSCLC)	TGI (HCT-116 colon)	TGI (RPMI-8226 leukemia)	TGI (ACHN renal)	TGI (CAKI-1 renal)	TGI (SF-295 CNS)	TGI (MDA-MB-231 breast)	TGI (SF-539 CNS)	TGI (OVCAR-5 ovarian)	TGI (UO-31 renal)
CCOC(=O)CN=C1NNS(=O)(=O)c2ccccc21	> 100 µM	> 100 µM	> 100 µM	> 100 µM	> 100 µM	> 100 µM	> 100 µM	> 100 µM	> 100 µM	> 100 µM	> 100 µM	> 100 µM	> 100 µM	> 100 µM	> 100 µM	> 100 µM	> 100 µM	> 100 µM	> 100 µM	> 100 µM
Cc1ccc(NC(=O)c2cccc(OP(=O)(O)Nc3ccc(C)cc3)c2)cc1	> 100 µM	> 100 µM	> 100 µM	> 100 µM	> 100 µM	> 100 µM	> 100 µM	> 100 µM	> 100 µM	> 100 µM	> 100 µM	> 100 µM	> 100 µM	> 100 µM	> 100 µM	> 100 µM	> 100 µM	> 100 µM	> 100 µM	> 100 µM
CC(C)(C)C1=CC(=C(c2ccc(-c3c4nc(c(-c5ccc(C(=C6C=C(C(C)(C)C)C(=O)C(C(C)(C)C)=C6)c6cc(C(C)(C)C)c(O)c(C(C)(C)C)c6)cc5)c5ccc([nH]5)c(-c5ccc(C(=C6C=C(C(C)(C)C)C(=O)C(C(C)(C)C)=C6)c6cc(C(C)(C)C)c(O)c(C(C)(C)C)c6)cc5)c5nc(c(-c6ccc(C(=C7C=C(C(C)(C)C)C(=O)C(C(C)(C)C)=C7)c7cc(C(C)(C)C)c(O)c(C(C)(C)C)c7)cc6)c6ccc3[nH]6)C=C5)C=C4)cc2)c2cc(C(C)(C)C)c(O)c(C(C)(C)C)c2)C=C(C(C)(C)C)C1=O	> 100 µM	> 100 µM	> 100 µM	> 100 µM	> 100 µM	> 100 µM	> 100 µM	> 100 µM	> 100 µM	> 100 µM	> 100 µM	> 100 µM	> 100 µM	> 100 µM	> 100 µM	> 100 µM	> 100 µM	> 100 µM	> 100 µM	> 100 µM
COc1cc(/C=C2\N=C(c3ccccc3)N(c3nc4c(OC)ccc(OC)c4s3)C2=O)ccc1O	> 100 µM	> 100 µM	42.4 µM	> 100 µM	> 100 µM	> 100 µM	> 100 µM	> 100 µM	> 100 µM	> 100 µM	> 100 µM	> 100 µM	62.8 µM	> 100 µM	> 100 µM	> 100 µM	> 100 µM	> 100 µM	> 100 µM	> 100 µM
CNC(=O)N1CN(c2ccccc2)C2(CCN(CCCC3(c4ccc(F)cc4)OCCO3)CC2)C1=O	> 100 µM	> 100 µM	> 100 µM	> 100 µM	> 100 µM	> 100 µM	> 100 µM	> 100 µM	> 100 µM	> 100 µM	> 100 µM	> 100 µM	> 100 µM	> 100 µM	> 100 µM	> 100 µM	> 100 µM	> 100 µM	> 100 µM	> 100 µM
Cc1cc(=O)n2nc(CN3CCCCC3)sc2n1	> 100 µM	> 100 µM	> 100 µM	> 100 µM	> 100 µM	> 100 µM	> 100 µM	> 100 µM	> 100 µM	> 100 µM	> 100 µM	> 100 µM	> 100 µM	> 100 µM	> 100 µM	> 100 µM	> 100 µM	> 100 µM	> 100 µM	> 100 µM
O=C(Cc1ccccc1)N/N=C/c1ccccc1O	> 100 µM	> 100 µM	> 100 µM	57.1 µM	> 100 µM	> 100 µM	> 100 µM	> 100 µM	54.8 µM	> 100 µM	> 100 µM	> 100 µM	> 100 µM	61 µM	> 100 µM	85.2 µM	> 100 µM	> 100 µM	> 100 µM	72.9 µM
CC(=O)OC1(C)C=CC(=O)C=C1	47.9 µM	> 100 µM	> 100 µM	79.5 µM	24.2 µM	> 100 µM	49.8 µM	69.6 µM	> 100 µM	> 100 µM	> 100 µM	> 100 µM	> 100 µM	34.7 µM	> 100 µM	> 100 µM	49.1 µM	> 100 µM	> 100 µM	46.4 µM
COC(=O)C1C(=O)C=CN([C@H](C)c2ccccc2)[C@@H]1Cc1ccc(OC)c(OCc2ccccc2)c1I (stereo not given in full)	34.4 µM	52 µM	> 100 µM	31.7 µM	36.8 µM	> 100 µM	60.4 µM	> 100 µM	17.4 µM	27 µM	71.9 µM	24.3 µM	> 100 µM	70 µM	> 100 µM	35.5 µM	46.7 µM	36.4 µM	92.7 µM	26.3 µM
CN(C)CCCN1c2ccccc2Sc2cnccc21	> 100 µM	> 100 µM	> 100 µM	> 100 µM	> 100 µM	> 100 µM	> 100 µM	> 100 µM	> 100 µM	> 100 µM	> 100 µM	> 100 µM	> 100 µM	> 100 µM	> 100 µM	> 100 µM	> 100 µM	> 100 µM	> 100 µM	> 100 µM
NC(N)=N/N=C/c1c(-c2cccc([N+](=O)[O-])c2)nc2n1CCS2	> 100 µM	68.5 µM	> 100 µM	53.5 µM	32.2 µM	32.1 µM	47.4 µM	41.5 µM	39.7 µM	> 100 µM	41 µM	> 100 µM	> 100 µM	44.2 µM	68.4 µM	54.6 µM	44.5 µM	43.7 µM	> 100 µM	30.6 µM
CCN(CC)CC(=O)O[C@]1(CC)C(=O)OCc2c1cc1n(c2=O)Cc2cc3ccccc3nc2-1	0.13 µM	0.862 µM	38.3 µM	0.129 µM	1.44 µM	> 100 µM	24.9 µM	39.1 µM	2.12 µM	3.93 µM	2.37 µM	0.352 µM	1.85 µM	0.146 µM	0.145 µM	1.08 µM	31.3 µM	0.17 µM	1.43 µM	0.182 µM
O=c1oc2cc(O)ccc2c(O)c1C(c1ccccc1F)c1c(O)c2ccc(O)cc2oc1=O	> 100 µM	> 100 µM	69 µM	> 100 µM	> 100 µM	> 100 µM	> 100 µM	> 100 µM	> 100 µM	> 100 µM	> 100 µM	> 100 µM	83.4 µM	> 100 µM	> 100 µM	> 100 µM	> 100 µM	> 100 µM	> 100 µM	> 100 µM
C/C=C(/C)C(=O)O[C@H]1C[C@@H]2[C@@H](O)c3occ(C)c3C[C@]2(C)[C@@H](C)C1	29.7 µM	30.2 µM	28.5 µM	46.8 µM	30.6 µM	66.7 µM	33.8 µM	29.9 µM	31.4 µM	44.3 µM	–	28.5 µM	76.5 µM	31 µM	33.3 µM	28.9 µM	29.2 µM	31.4 µM	34.8 µM	–
COC(=O)C(COC(C)=O)NC(=O)/C=C/c1ccc(O)c(OC(C)=O)c1 (stereo not given)	> 100 µM	> 100 µM	> 100 µM	> 100 µM	40.4 µM	> 100 µM	> 100 µM	> 100 µM	> 100 µM	> 100 µM	> 100 µM	> 100 µM	> 100 µM	> 100 µM	> 100 µM	> 100 µM	> 100 µM	53.9 µM	> 100 µM	> 100 µM
CC(=NNC(=S)Nc1ccc(C)cc1)c1cccc(C(C)=NNC(=S)Nc2ccc(C)cc2)n1	> 100 µM	> 100 µM	66.3 µM	> 100 µM	63.7 µM	> 100 µM	> 100 µM	> 100 µM	> 100 µM	> 100 µM	> 100 µM	45.3 µM	85.8 µM	95.2 µM	40.3 µM	71.7 µM	> 100 µM	28.1 µM	> 100 µM	> 100 µM
CCOP(=O)(CN1CCNCCNCC1)OCC	> 100 µM	> 100 µM	> 100 µM	> 100 µM	> 100 µM	> 100 µM	> 100 µM	> 100 µM	> 100 µM	> 100 µM	> 100 µM	> 100 µM	> 100 µM	> 100 µM	> 100 µM	> 100 µM	> 100 µM	> 100 µM	> 100 µM	> 100 µM
COc1ccc(CCN2CCN(CCc3ccc(OC)cc3)CC2)cc1	> 100 µM	> 100 µM	> 100 µM	> 100 µM	> 100 µM	> 100 µM	> 100 µM	> 100 µM	> 100 µM	> 100 µM	> 100 µM	> 100 µM	> 100 µM	> 100 µM	> 100 µM	> 100 µM	> 100 µM	> 100 µM	> 100 µM	> 100 µM
Cc1ccc(NC(=S)N/N=C(/c2ccccc2)c2ccccn2)cc1	13.7 µM	13.4 µM	4.61 µM	7.05 µM	24.4 µM	81.8 µM	2.44 µM	2.32 µM	8.82 µM	15.6 µM	15.7 µM	14 µM	> 58.4 µM	10.3 µM	9.48 µM	12.7 µM	20.1 µM	10.3 µM	2.07 µM	7.68 µM
COc1ccc(O)c(/C(C)=N/NC(=S)N(C)C)c1	> 100 µM	> 100 µM	> 100 µM	> 100 µM	> 100 µM	> 100 µM	–	> 100 µM	> 100 µM	> 100 µM	> 100 µM	> 100 µM	> 100 µM	> 100 µM	> 94.5 µM	> 100 µM	> 100 µM	> 100 µM	> 100 µM	> 100 µM
O=C1C(Cl)C(c2cccc(Cl)c2)N1c1ccc(-n2c(=S)[nH]c3ccccc3c2=O)cc1 (stereo not given)	54.9 µM	> 100 µM	45.3 µM	35.3 µM	31.3 µM	62.1 µM	80.1 µM	–	94.5 µM	14.4 µM	81.5 µM	85.3 µM	55.6 µM	48.8 µM	> 100 µM	41.8 µM	74.3 µM	54.6 µM	57.5 µM	49 µM
Cc1cccc2c(N)c3cccc(C(=O)NCC[N+](C)(C)Cc4c([N+](=O)[O-])ncn4C)c3nc12	37.2 µM	> 100 µM	> 100 µM	–	> 52.9 µM	> 96.1 µM	> 100 µM	> 100 µM	> 100 µM	> 100 µM	> 47.9 µM	> 90.2 µM	> 100 µM	> 39.5 µM	23.9 µM	> 100 µM	> 82.1 µM	36.9 µM	> 100 µM	69.1 µM
